Reference: patent publication US20240092800A1, “USP13 INHIBITORS AND METHODS OF USE THEREOF” (GEORGETOWN UNIVERSITY, priority 2021, published 2024)

Tests used:
Assay type in all cases: in vivo, mouse
Nissl+ cells = assay: Nissl staining neuron counts in TgA53T mice; settings: 40 mg/Kg I.P. daily for 7 days, vs DMSO
Protocol: Immunohistology. Animals were deeply anesthetized with a mixture of xylazine and ketamine (1:8), washed with normal saline for 1 min and then perfused with 4% paraformaldehyde (PFA) for 15-20 min. Brains were quickly dissected out and immediately stored in 4% PFA for 24 h at 4° C. and then transferred to 30% sucrose at 4° C. for 48 h. Brains were cut using a cryostat microtome into 20 μm thick coronal sections and stored at −20° C.
Nissl and Silver Staining. Nissl staining was performed using FD Cresyl Violet Solution™ Regular Strength (FD NeuroTechnologies, Cat PS102-01) as per manufacturer's instructions. Silver staining was performed using FD NeuroSilver™ (FD NeuroTechnologies, Cat PK301,) as per manufacturer's instructions.

murine tau = assay: p-Tau ser396 ELISA in TgA53T mice; settings: 10 mg/Kg or 40 mg/Kg I.P. daily for 7 days
Protocol: A total of 25 μL soluble protein was incubated overnight at 4° C. with 25 μL of a mixed bead solution. After washing, samples were incubated with 25 μL detection antibody solution for 1.5 hours at room temperature. Streptavidin-phycoerythrin (25 μL) was added to each well containing the 25 μL of detection antibody solution. Samples were then washed and suspended in 100 μL of sheath fluid. Samples were then run on MAGPIX with Xponent software. The median fluorescent intensity (MFI) data were analyzed using a 5-parameter logistic or spline curve-fitting method for calculating analyte concentrations in samples. Specific alpha-synuclein ELISAs were performed on tissue soluble extracts from midbrain lysates in 1XSTEN buffer. The ELISA for USP13 (MyBioSource, Cat # MBS9335287), Human alpha-synuclein (Biolegend, Cat #844101) and specific p-Tau ser396 (Invitrogen, KHB7031) were performed on cell or brain tissue extracts as described above according to manufacturers' protocol.

[1] = Pharmacokinetics in brain and serum of C57BL/6 mice (UHPLC-MS/MS); settings: 10 mg/kg I.P. single dose
Protocol: Pharmacokinetics Studies. […] Brain and serum samples were collected at 1, 2, 3, 4, 8 and 12 h (n=3 per time point). Animals injected with vehicle (DMSO) were used for background subtraction. Stock solution of the drug (1 mg/mL) and internal standards were prepared in methanol. Intermediate solutions used for the calibrators and control samples were serial-diluted in methanol/water (1:1). Preparation of the calibration curve standards and quality samples (QC) were performed by mixing the intermediate dilutions in blank samples (brain homogenates, serum). […] Serum and brain samples were stored at −80° C. and then thawed to room temperature prior to preparation. The brains were homogenized in MilliQ water (1 mg brain: 10 μL water). Proteins were precipitated in both brain and serum samples by mixing 25 μL aqueous sample with 75 μL internal standard working solution. The mixture was centrifuged at 12,300 g for 5 min. Thereafter, 75 μL of each supernatant and 25 μL of MilliQ water were pipetted into a 96-well PCR plate (Fisher Scientific, Dawsonville, GA,USA).
Briefly, the UHPLC-MS/MS system included an Elute HTG binary gradient UHPLC pump, an Elute column oven and an EVOQ Elite triple quadrupole mass spectrometer (all from Bruker Daltonik GmbH, Bremen, Germany) equipped with an electrospray ionization (ESI) source operating in a positive mode. The samples were injected by use of a PAL auto sampler (CTC Analytics, Zwingen, Switzerland) equipped with a 10-μL sample loop; the samples were kept in a PAL stack cooler for 6 microtiter plates and operating at +6° C. The system was controlled by a Compass 2.0/HyStar 4.0 software (Bruker); the compound screening and quantitation was performed by a TASQ 2.2 data acquisition and processing software (Bruker). The mass spectrometer was supplied by nitrogen and air generated by a Genius 3045 nitrogen/air generator (Peak Scientific Instruments, Inchinnan, Scotland, UK). The ESI parameters were as follows: probe gas flow 50, nebulizer gas flow 60, probe temperature +400° C., cone gas flow 20, cone temperature +350° C., CID gas Ar 1.5 mTorr. The mass spectra were scanned in the MRM mode to find the optimal collision energies for the test compounds and their respective precursor ions.
For chromatographic separation, an YMC-Ultra HT Hydrosphere C18 column (2.0×100 mm, 2 μm particle size) and an YMC-Hydrosphere 2.1×5 mm guard column (YMC Co. Ltd., Kyoto, Japan) were used. The mobile phase A was 10 mM ammonium formate, pH 4.3, in water; the mobile phase B was 10 mM ammonium formate, pH 4.3, in 10% water, 50% acetonitrile and 40% isopropyl alcohol. The mobile phase gradient was as follows (min—A/B%): 0 min—50/50, 0.5 min—50/50, 2.0 min—20/80, 3 min—20/80, 3.1 min—50/50, 4.5 min—50/50. The flow rate was 450 μL/min, and the column temperature was set at 50° C. The sample injection volume was 10 μL.

**Q.** Which results are given for `Fc1ccc2nccc(OCc3ccccc3)c2c1` [4-(Benzyloxy)-6-fluoroquinoline]?
**A.** neuron counts (Nissl+ cells) (Nissl+ cells; cortex): significantly increased neuron counts; neuron counts (Nissl+ cells) (Nissl+ cells; striatum): significantly increased neuron counts; neuron counts (Nissl+ cells) (Nissl+ cells; substantia nigra (SN)): significantly increased neuron counts; murine tau levels (ptau396 ELISA) (murine tau): no effect; Brain/serum ratio ([1]; 10 mg/kg): 28.0%; AUC ([1]; brain): 0.1643 µM·h; T1/2 (elimination) ([1]; brain): 2.32 h; AUC ([1]; serum): 0.5994 µM·h; T1/2 (elimination) ([1]; serum): 1.84 h; Tmax ([1]; serum): 1 h
